What is called EC50 is the midpoint of the concentration-response curve.

Results on 32 compounds are retold here after PubChem BioAssay AID1334 (NMMLSC, 2008).

In this test the target is Cell division control protein 42 homolog (Homo sapiens) (UniProt P60953). The test can be described thus: wildtype Cdc42 GTP-binding inhibitors, dose response, biochemical, multiplex bead flow cytometry, Bodipy-FL-GTP (AID 1334).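 Also: potency of inhibiting fluorescent GTP binding to Cdc42.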 The following applies: bead-based flow cytometry, Bodipy-FL-GTP binding to GST-Cdc42. For orientation: Flow cytometry measures light scatter and fluorescence of single cells or particles in a stream.
Cell division control protein 42 homolog (Homo sapiens), sequence (P60953 whole entry, looked up): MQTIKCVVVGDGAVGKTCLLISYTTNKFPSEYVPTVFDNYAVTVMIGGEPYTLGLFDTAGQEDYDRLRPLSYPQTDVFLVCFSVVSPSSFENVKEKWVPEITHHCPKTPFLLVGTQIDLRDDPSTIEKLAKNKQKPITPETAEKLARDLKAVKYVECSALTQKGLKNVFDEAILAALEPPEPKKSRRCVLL

Take `S=C(Nc1ccc(Oc2ccccc2)cc1)NC1CCCCC1`: the EC50 was 32.8 µM.

As for `O=C(O)c1ccccc1Sc1ncnc2sc3c(c12)CCC3`, the EC50 is 4.38 µM.

In the case of `CCOc1ccc(/C=C2\SC(N3CCc4ccccc4C3)=NC2=O)cc1`, the EC50 was 40.5 µM.

For the compound `CCn1nc(/C=C/c2ccccc2)nc2c(=O)n(C)c(=O)nc1-2`, the EC50 is 1.55 µM.

`CS(=O)(=O)c1ccc(C(=O)OCC(=O)NC(=O)C2CCCCC2)cc1[N+](=O)[O-]`: the EC50 is 53.1 µM.

On to `COc1ccc(-c2cc(C#N)nc(N3CCNCC3)n2)cc1`, for which the EC50 is 28.1 µM.

Regarding `O=C(O)c1ccccc1NCCc1ccc(Cl)cc1`, the EC50 is 1.53 µM.

`CCOC(=O)c1cc([N+](=O)[O-])c([N+](=O)[O-])cc1NC(C)=O`: the EC50 was 7.19 µM.

As to `CC(=O)c1ccc(C#CC(=O)c2ccc([N+](=O)[O-])cc2)cc1`, the concentration for a half-maximal effect (EC50) was 0.394 µM.

`CCS(=O)(=O)N1N=C(c2cccc(NS(C)(=O)=O)c2)CC1c1ccc(C)cc1` (configuration not stated): the EC50 was 2.6 µM.

With `CCOC(=O)Cn1nnnc1C(C(C)C)N(Cc1cccs1)Cc1cc2cc(C)ccc2[nH]c1=O` (configuration not stated), the EC50 was 7.28 µM.

With `O=C(O)/C=C/c1cn(Cc2ccccc2)nc1-c1cccs1`, the EC50 is 3.99 µM.

For the compound `CCCc1nc2c(=O)n(C)c(=O)nc-2n(C)n1`, the EC50 is 1.33 µM.

With `O=C(Nc1nnc(-c2ccc3c(c2)OCCO3)o1)c1ccc(Cc2ccccc2)cc1`, the EC50 is 0.355 µM.

With `Cc1nc2c(=O)n(C)c(=O)nc-2n(C)n1`, the EC50 is 1.96 µM.

Take `Cc1cc(C)c(C)c(C(=O)c2ccccc2C(=O)O)c1C`: the EC50 is 5.95 µM.

On to `N#Cc1c(-c2ccccc2)nc(SCC(=O)Nc2ccccc2)[nH]c1=O`, for which the EC50 was 2.1 µM.

Regarding `CCC(C(=O)NC1CCCC1)N(C(=O)Cn1nnc(-c2ccc(C)o2)n1)c1cnc2ccccc2c1` (configuration not stated), the EC50 is 34.6 µM.

Consider `O=C(O)c1ccccc1OCc1ccccc1Br`, for which the EC50 is 0.103 µM.

For the compound `CCCN1C(=O)/C(=C/C=C2\N(CC)c3ccccc3C2(C)C)SC1=S`, the EC50 is 5.49 µM.

Turning to `CCc1ccc(NS(=O)(=O)c2ccc3[nH]cc(C(=O)N4CCc5ccccc54)c(=O)c3c2)cc1`, the EC50 is 18.9 µM.

As for `CCCS(=O)(=O)c1nnnn1-c1cccc(OC)c1`, the EC50 is 19.3 µM.

For `Cc1sc2nc3ccc(NCc4ccco4)nn3c(=O)c2c1C`, the EC50 was 21.5 µM.

Regarding `Cc1cccc2cc(CN(Cc3cccs3)C(c3nnnn3C3CCCC3)C(C)C)c(=O)[nH]c12` (configuration not stated), the EC50 was 1.96 µM.

In the case of `O=C(NCc1cccs1)c1cccnc1C(=O)O`, the EC50 is 4.01 µM.

Regarding `COc1ccc(C2CC(c3ccccc3)=NN2c2ccc(S(N)(=O)=O)cc2)cc1` (configuration not stated), the EC50 is 3.2 µM.

Turning to `NS(=O)(=O)c1ccc(N2N=C(c3ccccc3)CC2c2ccccc2)cc1` (configuration not stated), the EC50 was 8.22 µM.

`NS(=O)(=O)c1ccc(N2N=C(c3ccccc3)CC2c2cccc(F)c2)cc1` (configuration not stated): the half-maximal effective concentration (EC50) is 4.87 µM.

Take `CCOC(=O)c1c(NC(=O)C(=O)N/N=C/c2ccc(O)c(OC)c2)sc2c1CCCCC2`: the EC50 is 2.87 µM.

With `Cc1ccc(C)c(OCCn2cc(C(=O)O)c3ccccc32)c1`, the EC50 was 0.584 µM.

`COC(=O)c1cccnc1SCCc1ccccc1`: the EC50 was 18.7 µM.

`CC(C)C(NCc1c(Cl)cccc1Cl)C(=O)O` (configuration not stated): the EC50 was 6.4 µM.
